Test results: US11401278B2, “Macrocyclic indole derivatives” (The Broad Institute, Inc., priority 2017, dated 2022)
Where a name gives a salt, the structure may show the parent alone.

target: MCL-1 (Homo sapiens (Human), UniProt Q07820, K194A/K197A/R201A); test: Protein-protein interaction assay MCL-1/Noxa BH3 peptide (MCL-1 assay, TR-FRET); type: binding; settings: MBP-MCL-1 / Noxa BH3 peptide, median
In short: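 MBP-fused MCL-1 (aa 173-329, 1 nM) was pre-incubated with compound for 10 min at 22° C, then biotinylated Noxa BH3 peptide (1 nM) was added with anti-MBP-Eu cryptate and streptavidin-XL665. Incubation was 1 h at 22° C, then overnight at 4° C, in Tris pH 7 buffer. The 665/620 nm ratio over 11 concentrations (0.1 nM-20 μM) gave IC50 by 4-parameter fit.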

Sequence of MCL-1 (Q07820 whole entry K194A/K197A/R201A, looked up, the tested form may be a part): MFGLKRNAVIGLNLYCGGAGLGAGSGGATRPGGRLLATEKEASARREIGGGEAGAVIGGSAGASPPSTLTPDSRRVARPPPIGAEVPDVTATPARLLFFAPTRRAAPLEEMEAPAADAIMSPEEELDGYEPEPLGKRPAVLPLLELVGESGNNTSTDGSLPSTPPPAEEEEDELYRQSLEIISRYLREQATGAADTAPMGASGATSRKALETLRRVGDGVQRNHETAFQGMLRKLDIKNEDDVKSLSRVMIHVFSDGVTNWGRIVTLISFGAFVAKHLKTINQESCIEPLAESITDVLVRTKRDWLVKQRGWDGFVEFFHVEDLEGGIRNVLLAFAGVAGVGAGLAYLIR

IC50 [nM]	Compound
0.64	CCc1c2c(nn1C)CN(C1CC1)S(=O)(=O)CCCn1c(C(=O)O)c(CCCOc3cccc4cc(F)ccc34)c3ccc(Cl)c-2c31 (single isomer, unassigned; enantiomer 1) [Example 54, (−)-4-chloro-14-cyclopropyl-3-ethyl-7-{3-[(6-fluoronaphthalen-1-yl)oxy]propyl}-2-methyl-13,13-dioxo-10,11,12,13,14,15-hexahydro-2H-13lambda^6-pyrazolo[3′,4′:4,5][1,2,8]thiadiazacycloundecino[6,7,8-hi]indole-8-carboxylic acid N-ethylethanamine Salt (Enantiomer 1)]
22	Cc1c2c(nn1C)C(CCN1CCOCC1)N(C)S(=O)(=O)CCCn1c(C(=O)O)c(CCCOc3cccc4cc(F)ccc34)c3ccc(Cl)c-2c31 (single isomer, unassigned; enantiomer 1) [Example 66, 4-chloro-7-{3-[(6-fluoronaphthalen-1-yl)oxy]propyl}-2,3,14-trimethyl-15-[2-(morpholin-4-yl)ethyl]-13,13-dioxo-10,11,12,13,14,15-hexahydro-2H-13lambda^6-pyrazolo[3′,4′:4,5][1,2,8]thiadiazacycloundecino[6,7,8-hi]indole-8-carboxylic acid (Enantiomer 1)]
0.94	Cc1c2c(nn1C)C(CCN1CCOCC1)N(C)S(=O)(=O)CCCn1c(C(=O)O)c(CCCOc3cccc4cc(F)ccc34)c3ccc(Cl)c-2c31 (racemic) [Example 65, (rac)-4-chloro-7-{3-[(6-fluoronaphthalen-1-yl)oxy]propyl}-2,3,14-trimethyl-15-(rac)-[2-(morpholin-4-yl)ethyl]-13,13-dioxo-10,11,12,13,14,15-hexahydro-2H-13lambda^6-pyrazolo[3′,4′:4,5][1,2,8]thiadiazacycloundecino[6,7,8-hi]indole-8-carboxylic acid (Mixture of Stereoisomers)]
1.9	CCc1c2c(nn1C)C(CCC1CCOCC1)N(C)S(=O)(=O)CCCn1c(C(=O)O)c(CCCOc3cccc4cc(F)ccc34)c3ccc(Cl)c-2c31 (racemic) [Example 59, (rac)-4-chloro-3-ethyl-7-{3-[(6-fluoro-1-naphthyl)oxy]propyl}-2,14-dimethyl-15-[2-(tetrahydro-2H-pyran-4-yl)ethyl]-11,12,14,15-tetrahydro-2H,10H-pyrazolo[3′,4′:4,5][1,2,8]thiadiazacycloundecino[6,7,8-hi]indole-8-carboxylic acid 13,13-dioxide (Racemate 2)]
1.7	CCc1c2c(nn1C)CN(C1CC1)S(=O)(=O)CCCn1c(C(=O)O)c(CCCOc3cccc4cc(F)ccc34)c3ccc(Cl)c-2c31 (racemic) [Example 53, (rac)-4-chloro-14-cyclopropyl-3-ethyl-7-{3-[(6-fluoro-1-naphthyl)oxy]propyl}-2-methyl-11,12,14,15-tetrahydro-2H,10H-pyrazolo[3′,4′:4,5][1,2,8]thiadiazacycloundecino[6,7,8-hi]indole-8-carboxylic acid 13,13-dioxide]
110	CCc1c2c(nn1C)C(CCC1CCOCC1)N(C)S(=O)(=O)CCCn1c(C(=O)O)c(CCCOc3cccc4cc(F)ccc34)c3ccc(Cl)c-2c31 (single isomer, unassigned; enantiomer 2) [Example 62, (−)-4-chloro-3-ethyl-7-{3-[(6-fluoronaphthalen-1-yl)oxy]propyl}-2,14-dimethyl-15-[2-(oxan-4-yl)ethyl]-13,13-dioxo-10,11,12,13,14,15-hexahydro-2H-13lambda^6-pyrazolo[3′,4′:4,5][1,2,8]thiadiazacycloundecino[6,7,8-hi]indole-8-carboxylic acid (Enantiomer 2)]
0.96	Cc1c2c(nn1C)CNS(=O)(=O)CCCn1c(C(=O)O)c(CCCOc3cccc4cc(F)ccc34)c3ccc(Cl)c-2c31 (single isomer, unassigned; enantiomer 1) [Example 51, 4-chloro-7-{3-[(6-fluoronaphthalen-1-yl)oxy]propyl}-2,3-dimethyl-13,13-dioxo-10,11,12,13,14,15-hexahydro-2H-13lambda^6-pyrazolo[3′,4′:4,5][1,2,8]thiadiazacycloundecino[6,7,8-hi]indole-8-carboxylic acid (Enantiomer 1)]
0.48	CCc1c2c(nn1C)CN(CC)S(=O)(=O)CCCn1c(C(=O)O)c(CCCOc3cccc4cc(F)ccc34)c3ccc(Cl)c-2c31 (single isomer, unassigned; enantiomer 1) [Example 57, (+)-4-chloro-3,14-diethyl-7-{3-[(6-fluoronaphthalen-1-yl)oxy]propyl}-2-methyl-13,13-dioxo-10,11,12,13,14,15-hexahydro-2H-13lambda^6-pyrazolo[3′,4′:4,5][1,2,8]thiadiazacycloundecino[6,7,8-hi]indole-8-carboxylic acid N-ethylethanamine Salt (Enantiomer 1)]

Second part, the molecule before the results:

Compound	IC50 [nM]
CCc1c2c(nn1C)C(CCN1CCOCC1)N(C)S(=O)(=O)CCCn1c(C(=O)O)c(CCCOc3cccc4cc(F)ccc34)c3ccc(Cl)c-2c31 (racemic) [Example 73, (rac)-(4-chloro-3-ethyl-7-{3-[(6-fluoronaphthalen-1-yl)oxy]propyl}-2,14-dimethyl-15-[2-(morpholin-4-yl)ethyl]-13,13-dioxo-10,11,12,13,14,15-hexahydro-2H-13lambda^6-pyrazolo[3′,4′:4,5][1,2,8]thiadiazacycloundecino[6,7,8-hi]indole-8-carboxylic acid (Racemate 1)]	0.34
Cc1c2c(nn1C)CN(C)S(=O)(=O)CCCn1c(C(=O)O)c(CCCOc3cccc4cc(F)ccc34)c3ccc(F)c-2c31 (single isomer, unassigned; enantiomer 2) [Example 39, (+)-4-fluoro-7-{3-[(6-fluoronaphthalen-1-yl)oxy]propyl}-2,3,14-trimethyl-13,13-dioxo-10,11,12,13,14,15-hexahydro-2H-13lambda^6-pyrazolo[3′,4′:4,5][1,2,8]thiadiazacycloundecino-[6,7,8-hi]indole-8-carboxylic acid (Enantiomer 2)]	0.89
Cc1c2c(nn1C)CN(C)S(=O)(=O)CCCn1c(C(=O)O)c(CCCOc3cccc4ccccc34)c3ccc(F)c-2c31 (racemic) [Example 26, (rac)-13-Fluoro-8,11,12-trimethyl-1-(3-(naphthalen-1-yloxy)propyl)-5,6,9,11-tetrahydro-4H,8H-pyrazolo[3′,4′:4,5][1]thia[2,8]diazacycloundecino[6,7,8-hi]indole-2-carboxylic acid 7,7-dioxide]	3.6
Cc1c2c(nn1C)CN(C)S(=O)(=O)CCCn1c(C(=O)O)c(CCCOc3cccc4c3CCCC4)c3ccc(F)c-2c31 (racemic) [Example 29, (rac)-13-Fluoro-8,11,12-trimethyl-1-(3-((5,6,7,8-tetrahydronaphthalen-1-yl)oxy)propyl)-5,6,9,11-tetrahydro-4H,8H-pyrazolo[3′,4′:4,5][1]thia[2,8]diazacycloundecino[6,7,8-hi]indole-2-carboxylic acid 7,7-dioxide]	3.1
CCc1c2c(nn1C)CN(C)S(=O)(=O)CCCn1c(C(=O)O)c(CCCOc3cccc4cc(F)ccc34)c3ccc(Cl)c-2c31 (single isomer, unassigned; enantiomer 2) [Example 37, (−)-4-chloro-3-ethyl-7-{3-[(6-fluoronaphthalen-1-yl)oxy]propyl}-2,14-dimethyl-13,13-dioxo-10,11,12,13,14,15-hexahydro-2H-13lambda^6-pyrazolo[3′,4′:4,5][1,2,8]thiadiazacycloundecino-[6,7,8-hi]indole-8-carboxylic acid (Enantiomer 2)]	11
CCc1c2c(nn1C)C(C)N(C)S(=O)(=O)CCCn1c(C(=O)O)c(CCCOc3cccc4ccccc34)c3cccc-2c31 (racemic) [Example 18, 12-Ethyl-8,9,11-trimethyl-1-(3-(naphthalen-1-yloxy)propyl)-5,6,9,11-tetrahydro-4H,8H-pyrazolo[3′,4′:4,5][1]thia[2,8]diazacycloundecino[6,7,8-hi]indole-2-carboxylic acid 7,7-dioxide (Mixture of Stereoisomers)]	7.8
Cc1c2c(nn1C)CNS(=O)(=O)CCCn1c(C(=O)O)c(CCCOc3cccc4cc(F)ccc34)c3ccc(Cl)c-2c31 (racemic) [Example 50, (rac)-4-chloro-7-{3-[(6-fluoro-1-naphthyl)oxy]propyl}-2,3-dimethyl-11,12,14,15-tetrahydro-2H,10H-pyrazolo[3′,4′:4,5][1,2,8]thiadiazacycloundecino[6,7,8-hi]indole-8-carboxylic acid 13,13-dioxide]	0.74
CCc1c2c(nn1C)CN(C)S(=O)(=O)CCCn1c(C(=O)O)c(CCCOc3cc(C)c(Cl)c(C)c3)c3ccc(F)c-2c31 (racemic) [Example 33, (rac)-1-(3-(4-Chloro-3,5-dimethylphenoxy)propyl)-12-ethyl-13-fluoro-8,11-dimethyl-5,6,9,11-tetrahydro-4H,8H-pyrazolo[3′,4′:4,5][1]thia[2,8]diazacycloundecino[6,7,8-hi]indole-2-carboxylic acid 7,7-dioxide]	4.2
CCc1c2c(nn1C)CN(CCCN1CCCC1)S(=O)(=O)CCCn1c(C(=O)O)c(CCCOc3cccc4ccccc34)c3cccc-2c31 (racemic) [Example 16, (rac)-12-Ethyl-11-methyl-1-(3-(naphthalen-1-yloxy)propyl)-8-(3-(pyrrolidin-1-yl)propyl)-5,6,9,11-tetrahydro-4H,8H-pyrazolo[3′,4′:4,5][1]thia[2,8]diazacycloundecino[6,7,8-hi]indole-2-carboxylic acid 7,7-dioxide]	5.7
Cc1c2c(nn1C)CN(C1CC1)S(=O)(=O)CCCn1c(C(=O)O)c(CCCOc3cccc4cc(F)ccc34)c3ccc(Cl)c-2c31 (racemic) [Example 41, (rac)-4-chloro-14-cyclopropyl-7-{3-[(6-fluoro-1-naphthyl)oxy]propyl}-2,3-dimethyl-11,12,14,15-tetrahydro-2H,10H-pyrazolo[3′,4′:4,5][1,2,8]thiadiazacycloundecino[6,7,8-hi]indole-8-carboxylic acid 13,13-dioxide]	1.3
